Test results from patent publication US4603139A, “Bicycle compounds, processes for their preparation and pharmaceutical formulations containing compounds” (Burroughs Wellcome Co., priority 1981, dated 1986).
Values after ≈ are worked out from the molar mass of the structure shown. Counter-ions that a name gives are not always drawn.

How the values were obtained:
[1] = system: right ventricular papillary muscle; assay: in vitro inotropic activity (isolated right ventricular papillary muscle); format: cell-based, guinea-pig; conditions: 75% increase in basal contractile force (Fc), carazolol 5×10^-8 M present, 34° C., cumulative additions; for EC75: Cavia porcellus, read-out: Potency for 75% increase Fc lying within the range
Description: The heart was rapidly excised and washed with Krebs-Henesleit solution containing the β-adrenoceptor antagonist carazolol (5×10^-8 M) and gassed with 95% O2 : 5% CO2 at 34° C. The heat was transferred to a petri dish containing the same buffer kept at a constant temperature (34° C.) throughout the dissection. Fresh buffer was used for each dissection and washings were discarded after use. A single right ventricular papillary muscle was employed from each heart; the tendinous end ligated to a stainless steel hook and the lower end ligated and cut away from the ventricle wall and attached to a perspex clamp such that the tissue was in contact with a platimum punctate electrode. The stainless steel hook was suspended from a Grass FT.03 transducer which recorded isometric tension. The preparation was placed in a 20 ml pyrex organ bath containing buffer gassed with 95% O2 : 5% CO2 and maintained at 34° C. 500 mg loading tension was applied to the preparation. Stimulation was effected by rectangular pulses of Imsec duration at 1.5 Hz at 30% above the threshold voltage (1-5 volts) by a SRI stimulator. The transducer inputs were coupled to a potentiometric recording device by a 6-channel Grass transducer coupler. After 90 minutes, preparations unable to sustain uniform contractions beyond this period were rejected.

[2] = system: anaesthetised, open-chest beagles; assay: in vivo inotropic and vasodilatory activity; conditions: Canis lupus familiaris, bolus intravenous, 0.003-3.0 mg/kg; for ED50: increase in dp/dt of left ventricular pressure; for ED30: vasodilatory activity
Description: The compounds of Examples 1,2 and 21 were tested in comparison with amrinone and […]. […] This is accompanied by a dose-related increase in aortic blood flow, and a fall in systemic blood pressure (see Table below).

[3] = system: phosphodiesterase; assay: phosphodiesterase inhibitory activity; format: biochemical; conditions: 100 μM, 1 mM and 10 mM; 3H-cAMP 5 uM; guinea pig heart homogenate; 37° C., 30 minutes
Description: The determination of phosphodiesterase inhibitory activity was effected by a procedure based on that of Thompson and Appleman (Biochme., 10, 311 (1971)). ^3 H-cAMP (5 uM) is incubated at 37° C. for 30 minutes with the 1000Xg supernatent of a 10% (w/v) homogenate of guinea pig heart in 50 mM-Tris/HCL pH7+5 mM-mgCI2 in either the presence or the absence of the compound of Example 21 which, in the former case, is dissolved in Tris buffer to give final concentrations of 100 uM, 1 mM and 10 mM. Phosphodiesterase enzyme in the homogenate hydrolyses ^3 H-cAMP to ^3 H-5'-AMP which is further converted to ^3 H-adenosine by a 5'-nucleotidase added to the incubation mixture. After a period of incubation unchanged ^3 H-cAMP is removed by adding ion exchange resin to the mixture and centrifuging. The ^3 H in the supernatent is assayed by liquid scintillation counting and gives a quantitative measure of adenosine formation (i.e. cAMP hydrolysis). Comparison of the ^3 H-adenosine formed in the presence and absence of test compound gives a measure of the PDE-inhibitory activity of the compound.

[4] = system: ADP-induced platelet aggregation; assay: ex vivo inhibition of platelet aggregation; format: in vivo; conditions: Macaca mulatta, iv, anaesthetised rhesus monkey, read-out: effective dose causing 50% inhibition of aggregation
Description: Rhesus monkeys of both sexes (7.3-9 kg, body weight) were sedated with phencyclidine, subsequently anaesthetised with thiopentone and maintained with sodium pentobarbitone. Catheters were placed in the left femoral artery to record blood pressure and in the left femoral vein for administration of drugs. A further catheter was placed in the contralateral femoral artery for the removal of blood samples. Heart rate was recorded from ECG (standard lead II). A left ventricular catheter was introduced via the left carotid artery to measure left ventricular pressure. […] Rectal temperature of the anaesthetised monkey was maintained at 37°-38° C. via a heated table-pad.
Blood samples (3 ml) were withdrawn into syringes containing trisodium citrate (0.315% w/v final concentration), and spun for […]. The platelet rich-plasma was transferred to a Born-type aggregometer and incubated for 1 min (at 37° C.) prior to the addition of sufficient ADP to induce sub-maximal (1.5-3 μM) or near maximal (8-12 μM) aggregation. Inhibition of aggregation was calculated with reference to at least 2 control samples prior to intravenous infusion of compound A. The sequence of administration of compound A was randomized between experiments. The effective dose of compound A which caused 50% inhibition of aggregation is 1.0 mg/kg i.v. (approximately).

[5] = system: ADP-induced platelet aggregation; assay: in vitro inhibition of platelet aggregation; format: cell-based, rhesus monkey; conditions: Macaca mulatta, 1 min, platelet-rich plasma, 37° C., read-out: ID50 (dose causing 50% inhibition of platelet aggregation)
Description: Blood was freshly collected into siliconized (Siloclad; Clay Adams) plastic (Sterlin Ltd.) tubes containing trisodium citrate (3.15%; 0.1 volume with 0.9 volume blood) and centrifuged (200 g for 15 min) at room temperature. The platelet-rich plasma (PRP) was withdrawn into plastic containers and kept at room temperature. Inhibition of platelet aggregation was determined in a Born-type aggregometer by incubating aliquots (0.5 ml) of the PRP for 1 min at 37° C. with or without compound A prior to addition of sufficient adenosine diphosphate (ADP). Dose-inhibition curves were constructed for each compound and the ID50 (dose causing 50% inhibition) was calculated as the dose required to reduce the aggregation to 50% of its control amplitude. The ID50 for compound A is 1 mg/ml (approximately).

[6] = system: myocardial injury; assay: myocardial injury following selective ligation of the coronary artery in vivo
[7] = system: ischaemic heart; assay: ventricular vulnerability to arrythmias in the ischaemic heart; format: in vivo
[8] = system: myocardial β-adrenoceptors; conditions: Brutsaert et al 1982; Pouleur et al 1982; cited from earlier work
[9] = system: myocardial phosphodiesterase; conditions: Diederan and Wiesenberger, 1981; cited from earlier work

Compound `COc1ccccc1-c1nc2cnccc2[nH]1` [Example 7, 2-(2-methoxyphenyl)-1H-imidazo[4,5-c]pyridine hydrochloride] has an EC75 [1] of 100 to 1000 µM.
For `COc1ccc(-c2nc3cnccc3[nH]2)cc1[S+](C)[O-]` (stereo not drawn) [Example 35, 2-(3-Methylsulphinyl-4-methoxyphenyl)-1H-imidazo[4,5-c]pyridine], the EC75 [1] was greater than 1000 µM.
For `COc1cc(Cl)ccc1-c1nc2cnccc2[nH]1` [Example 10, 2-(2-methoxy-4-chlorophenyl)-1H-imidazo[4,5-c]pyridine hydrochloride], the EC75 [1] was 10 to 100 µM.
Compound `COc1ccc(-c2nc3c[n+]([O-])ccc3[nH]2)c(OC)c1` [Example 38, 2-(2,4-Dimethoxyphenyl)-1H-imidazo[4,5-c]pyridineN^5-oxide hydrate] has an EC75 [1] greater than 1000 µM.
For `COc1ccc(-c2nc3cnccc3n2C)c(OC)c1` [Example 41, 1-Methyl-2-(2,4-dimethoxyphenyl)-1H-imidazo[4,5-c]pyridine], the EC75 [1] was greater than 1000 µM.
Compound `COc1ccc(-c2nc3ccncc3n2C)c(OC)c1` [Example 40, 3-Methyl-2-(2,4-dimethoxyphenyl)-1H-imidazo[4,5-c]pyridine] has an EC75 [1] greater than 1000 µM.
`Nc1cc(-c2ccncc2)c[nH]c1=O` [Amrinone, reference compound] gave an ED50 [2] of 1 mg/kg and an ED30 [2] of 2 mg/kg.
Compound `COc1ccc(-c2nc3cnccc3[nH]2)c([S+](C)[O-])c1` (stereo not drawn) [Example 22, 2-(2-Methylsulphinyl-4-methoxyphenyl)-1H-imidazo[4,5-c]pyridine hydrochloride] has an EC75 [1] greater than 1000 µM.
`COc1ccc(-c2nc3cnccc3[nH]2)cc1.Cl.Cl` [Example 2, 2-(4-Methoxyphenyl)-1H-imidazo[4,5-c]pyridine dihydrochloride] gave an ED50 [2] of 2 mg/kg and an ED30 [2] of 5.1 mg/kg.
Compound `COc1cc(S(C)(=O)=O)ccc1-c1nc2cnccc2[nH]1` [Example 32, 2-(2-Methoxy-4-methylsulphonylphenyl)-1H-imidazo[4,5-c]pyridine] has an EC75 [1] of 100 to 1000 µM.
For `COc1ccc(-c2nc3cnccc3[nH]2)c(OC)c1` [Example 1, 2-(2,4-Dimethoxyphenyl)-1H-imidazo[4,5-c]pyridine], the EC75 [1] was 100 to 1000 µM, the ED50 [2] was 0.13 mg/kg and the ED30 [2] was 0.24 mg/kg.
`COc1cc([S+](C)[O-])ccc1-c1nc2cnccc2[nH]1` (stereo not drawn) [Example 21, 2-(2-Methoxy-4-methylsulphinylphenyl)-1H-imidazo[4,5-c]pyridine] showed an EC75 [1] of 100 to 1000 µM, an ED50 [2] of 0.063 mg/kg and an ED30 [2] of 0.19 mg/kg. For the same compound, the PDE inhibitory activity [3] was “no PDE inhibitory activity”, the ED50 [4] was roughly 1 mg/kg and the IC50 [5] was roughly 1000 µg/mL (≈ 3.48 mM). For the same compound, the “effect on myocardial injury” value [6] was “does not exacerbate myocardial injury” and the “effect on ventricular vulnerability to arrythmias” value [7] was “does not increase ventricular vulnerability to arrythmias”.
`CSc1ccccc1-c1nc2cnccc2[nH]1` [Example 29, 2-(2-methylthiophenyl)-1H-imidazo[4,5-c]pyridine hydrochloride] gave an EC75 [1] of 100 to 1000 µM.
For `COc1ccc(-c2nc3cnccc3[nH]2)cc1SC` [Example 34, 2-(3-Methylthio-4-methoxyphenyl)-1H-imidazo-[4,5-c]pyridine dihydrochloride], the EC75 [1] was 100 to 1000 µM.
Work on `COc1ccc(-c2nc3cnccc3[nH]2)cc1OC` [Example 8, 2-(3,4-dimethoxyphenyl)-1H-imidazo[4,5-c]pyridine dihydrochloride] yielded an EC75 [1] of 10 to 100 µM.
For “2-(2-methylsulphinyl)-1H-imidazo[4,5-c]pyridine hydrochloride [Example 50]”, the “Potency for 75% increase Fc lying within the range” value [1] was > 10^-3 M.
`COc1cc(-c2nc3cnccc3[nH]2)cc(OC)c1OC` [Example 3, 2-(3,4,5-trimethoxyphenyl)-1H-imidazo[4,5-c]pyridine dihydrochloride] showed an EC75 [1] greater than 1000 µM.
In the case of `COc1cc([S+](C)[O-])ccc1-c1nc2cnccc2[nH]1.Cl` (stereo not drawn) [Example 23, 2-(2-Methoxy-4-methylsulphinylphenyl)-1H-imidazo[4,5-c]pyridine hydrochloride], the “Potency for 75% increase Fc lying within the range” value [1] is reported as 10^-4 -10^-3 M.
In the case of `COc1cc([S+](C)[O-])ccc1-c1nc2ncccc2[nH]1` (stereo not drawn) [Vardax, 2-[(2-methoxy-4-methylsulphinyl)phenyl]-1H-imidazo[4,5-b]pyridine, reference compound], the ED50 [2] is listed as 1 mg/kg, the ED30 [2] is listed as 2.11 mg/kg and the “contribution of myocardial β-adrenoceptor stimulation to positive inotropic stimulation” value [8] is listed as “at least part of the positive inotropic stimulation”. The “inhibition of myocardial phosphodiesterase” value [9] was “effective inhibitor of myocardial phosphodiesterase”.
